Reference: US9260439B2, “Dihydropyrrolopyrimidine derivatives” (PFIZER INC., priority 2014, dated 2016)

Target: truncated PI3Kα (p110α/iSH2 p85α) (Homo sapiens (Human), UniProt P42336)
Assay: PI3KA_Act fluorescence polarization kinase assay (Ki)
Format: biochemical
Conditions: 1 mM ATP
In short: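 p110α/iSH2 p85α (0.5 nM) was reacted with 30 μM sonicated PIP2 in 50 mM HEPES pH 7.4, 150 mM NaCl, 5 mM MgCl2, 1 mM DTT and 0.05% CHAPS for 30 min at room temperature, then stopped with EDTA. PIP3 was detected by fluorescence polarization (GST-Grp1 PH domain/TAMRA-PIP3), and Ki came from a Morrison tight-binding fit.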

truncated PI3Kα (p110α/iSH2 p85α), sequence (P42336 whole entry, the tested form may be a part): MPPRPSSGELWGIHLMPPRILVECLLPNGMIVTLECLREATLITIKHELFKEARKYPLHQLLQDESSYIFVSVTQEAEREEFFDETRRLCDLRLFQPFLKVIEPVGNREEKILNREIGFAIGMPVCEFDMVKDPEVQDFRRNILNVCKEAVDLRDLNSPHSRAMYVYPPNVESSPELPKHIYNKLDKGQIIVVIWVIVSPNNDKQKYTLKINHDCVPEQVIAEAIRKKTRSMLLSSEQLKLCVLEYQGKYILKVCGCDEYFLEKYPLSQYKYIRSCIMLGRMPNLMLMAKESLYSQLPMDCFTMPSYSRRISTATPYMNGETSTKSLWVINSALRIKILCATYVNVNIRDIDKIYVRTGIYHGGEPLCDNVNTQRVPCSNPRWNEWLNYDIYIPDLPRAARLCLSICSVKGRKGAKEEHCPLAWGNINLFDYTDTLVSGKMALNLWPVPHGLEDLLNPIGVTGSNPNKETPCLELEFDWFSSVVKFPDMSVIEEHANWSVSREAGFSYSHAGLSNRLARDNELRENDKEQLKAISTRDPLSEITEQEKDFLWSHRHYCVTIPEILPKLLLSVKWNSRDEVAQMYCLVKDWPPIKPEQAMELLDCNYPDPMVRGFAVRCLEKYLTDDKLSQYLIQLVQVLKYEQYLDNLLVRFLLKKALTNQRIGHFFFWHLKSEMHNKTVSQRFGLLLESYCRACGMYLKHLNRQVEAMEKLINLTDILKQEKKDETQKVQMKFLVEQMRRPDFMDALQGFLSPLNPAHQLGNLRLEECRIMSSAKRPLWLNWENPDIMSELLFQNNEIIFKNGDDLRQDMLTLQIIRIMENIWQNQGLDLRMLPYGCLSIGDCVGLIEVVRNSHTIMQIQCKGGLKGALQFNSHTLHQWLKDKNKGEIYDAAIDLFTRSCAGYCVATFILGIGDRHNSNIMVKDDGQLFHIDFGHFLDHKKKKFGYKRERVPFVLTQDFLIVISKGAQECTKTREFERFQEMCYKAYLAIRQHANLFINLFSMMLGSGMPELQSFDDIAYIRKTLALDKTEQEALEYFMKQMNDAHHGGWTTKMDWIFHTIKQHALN

SMILES	PI3KA_Act Ki [nM]
C[C@]1(N2CCc3c(-c4cnc(N)nc4)nc(N4CCOCC4)nc32)CCN(C(=O)[C@H](N)CF)C1.Cl [Example 292, (2S)-2-amino-1-{(3S)-3-[4-(2-aminopyrimidin-5-yl)-2-(morpholin-4-yl)-5,6-dihydro-7H-pyrrolo[2,3-d]pyrimidin-7-yl]-3-methylpyrrolidin-1-yl}-3-fluoropropan-1-one hydrochloride]	<0.018
C[C@]1(N2CCc3c(-c4cnc(N)nc4)nc(N4CCOCC4)nc32)CCN(C(=O)[C@@H](N)CF)C1.Cl [Example 293, (2R)-2-amino-1-{(3S)-3-[4-(2-aminopyrimidin-5-yl)-2-(morpholin-4-yl)-5,6-dihydro-7H-pyrrolo[2,3-d]pyrimidin-7-yl]-3-methylpyrrolidin-1-yl}-3-fluoropropan-1-one hydrochloride]	0.086
CC(N)(CF)C(=O)N1CC[C@](C)(N2CCc3c(-c4cnc(N)nc4)nc(N4CCOCC4)nc32)C1.Cl (stereo partly drawn) [Example 294, 2-amino-1-{(3S)-3-[4-(2-aminopyrimidin-5-yl)-2-(morpholin-4-yl)-5,6-dihydro-7H-pyrrolo[2,3-d]pyrimidin-7-yl]-3-methylpyrrolidin-1-yl}-3-fluoro-2-methylpropan-1-one hydrochloride]	<0.018
C[C@]1(N2CCc3c(-c4cnc(N)nc4)nc(N4CCOCC4)nc32)CCN(C(=O)[C@@H](N)C2CC2)C1.Cl [Example 296, (2S)-2-amino-1-{(3S)-3-[4-(2-aminopyrimidin-5-yl)-2-(morpholin-4-yl)-5,6-dihydro-7H-pyrrolo[2,3-d]pyrimidin-7-yl]-3-methylpyrrolidin-1-yl}-2-cyclopropylethanone hydrochloride]	<0.018
C[C@]1(N2CCc3c(-c4cnc(N)nc4)nc(N4CCOCC4)nc32)CCN(C(=O)[C@H](N)C2CC2)C1.Cl [Example 297, (2R)-2-amino-1-{(3S)-3-[4-(2-aminopyrimidin-5-yl)-2-(morpholin-4-yl)-5,6-dihydro-7H-pyrrolo[2,3-d]pyrimidin-7-yl]-3-methylpyrrolidin-1-yl}-2-cyclopropylethanone hydrochloride]	0.019
CNCC(=O)N1CC[C@](C)(N2CCc3c(-c4cnc(N)nc4)nc(N4CCOCC4)nc32)C1 [Example 298, 1-{(3S)-3-[4-(2-aminopyrimidin-5-yl)-2-(morpholin-4-yl)-5,6-dihydro-7H-pyrrolo[2,3-d]pyrimidin-7-yl]-3-methylpyrrolidin-1-yl}-2-(methylamino)ethanone]	<0.018
CN(C)CC(=O)N1CC[C@](C)(N2CCc3c(-c4cnc(N)nc4)nc(N4CCOCC4)nc32)C1 [Example 299, 1-{(3S)-3-[4-(2-aminopyrimidin-5-yl)-2-(morpholin-4-yl)-5,6-dihydro-7H-pyrrolo[2,3-d]pyrimidin-7-yl]-3-methylpyrrolidin-1-yl}-2-(dimethylamino) ethanone]	<0.018
CN(C)CC(=O)N1CC[C@@](C)(N2CCc3c(-c4cnc(N)nc4)nc(N4CCOCC4)nc32)C1 [Example 300, 1-{(3R)-3-[4-(2-aminopyrimidin-5-yl)-2-(morpholin-4-yl)-5,6-dihydro-7H-pyrrolo[2,3-d]pyrimidin-7-yl]-3-methylpyrrolidin-1-yl}-2-(dimethylamino) ethanone]	0.669
C[C@H](C(=O)N1CC[C@](C)(N2CCc3c(-c4cnc(N)nc4)nc(N4CCOCC4)nc32)C1)N(C)C [Example 301, (2R)-1-{(3S)-3-[4-(2-aminopyrimidin-5-yl)-2-(morpholin-4-yl)-5,6-dihydro-7H-pyrrolo[2,3-d]pyrimidin-7-yl]-3-methylpyrrolidin-1-yl}-2-(dimethylamino) propan-1-one]	0.073
CC(C(=O)N1CC[C@](C)(N2CCc3c(-c4cnc(N)nc4)nc(N4CCOCC4)nc32)C1)N(C)C (stereo partly drawn) [Example 302, 1-{(3S)-3-[4-(2-aminopyrimidin-5-yl)-2-(morpholin-4-yl)-5,6-dihydro-7H-pyrrolo[2,3-d]pyrimidin-7-yl]-3-methylpyrrolidin-1-yl}-2-(dimethylamino) propan-1-one]	0.038
CNC(C)(C)C(=O)N1CC[C@](C)(N2CCc3c(-c4cnc(N)nc4)nc(N4CCOCC4)nc32)C1.Cl [Example 303, 1-{(3S)-3-[4-(2-aminopyrimidin-5-yl)-2-(morpholin-4-yl)-5,6-dihydro-7H-pyrrolo[2,3-d]pyrimidin-7-yl]-3-methylpyrrolidin-1-yl}-2-methyl-2-(methylamino) propan-1-one hydrochloride]	0.025
CN(C)C(C)(C)C(=O)N1CC[C@](C)(N2CCc3c(-c4cnc(N)nc4)nc(N4CCOCC4)nc32)C1 [Example 304, 1-{(3S)-3-[4-(2-aminopyrimidin-5-yl)-2-(morpholin-4-yl)-5,6-dihydro-7H-pyrrolo[2,3-d]pyrimidin-7-yl]-3-methylpyrrolidin-1-yl}-2-(dimethylamino)-2-methylpropan-1-one]	<0.018
CC(C)(CN)C(=O)N1CC[C@](C)(N2CCc3c(-c4cnc(N)nc4)nc(N4CCOCC4)nc32)C1.Cl [Example 305, 3-amino-1-{(3S)-3-[4-(2-aminopyrimidin-5-yl)-2-(morpholin-4-yl)-5,6-dihydro-7H-pyrrolo[2,3-d]pyrimidin-7-yl]-3-methylpyrrolidin-1-yl}-2,2-dimethylpropan-1-one hydrochloride]	0.036
CNCC(C)(C)C(=O)N1CC[C@](C)(N2CCc3c(-c4cnc(N)nc4)nc(N4CCOCC4)nc32)C1.Cl [Example 306, 1-{(3S)-3-[4-(2-aminopyrimidin-5-yl)-2-(morpholin-4-yl)-5,6-dihydro-7H-pyrrolo[2,3-d]pyrimidin-7-yl]-3-methylpyrrolidin-1-yl}-2,2-dimethyl-3-(methylamino) propan-1-one hydrochloride]	<0.018
C[C@]1(N2CCc3c(-c4cnc(N)nc4)nc(N4CCOCC4)nc32)CCN(C(=O)C(F)(F)CN)C1.Cl [Example 307, 3-amino-1-{(3S)-3-[4-(2-aminopyrimidin-5-yl)-2-(morpholin-4-yl)-5,6-dihydro-7H-pyrrolo[2,3-d]pyrimidin-7-yl]-3-methylpyrrolidin-1-yl}-2,2-difluoropropan-1-one hydrochloride]	<0.018
C[C@@]1(N2CCc3c(-c4cnc(N)nc4)nc(N4CCOCC4)nc32)CCN(C(=O)CC(F)(F)F)C1 [Example 308, 1-{(3R)-3-[4-(2-aminopyrimidin-5-yl)-2-(morpholin-4-yl)-5,6-dihydro-7H-pyrrolo[2,3-d]pyrimidin-7-yl]-3-methylpyrrolidin-1-yl}-3,3,3-trifluoropropan-1-one]	0.126
C[C@]1(N2CCc3c(-c4cnc(N)nc4)nc(N4CCOCC4)nc32)CCN(C(=O)CC(F)(F)F)C1 [Example 309, 1-{(3S)-3-[4-(2-aminopyrimidin-5-yl)-2-(morpholin-4-yl)-5,6-dihydro-7H-pyrrolo[2,3-d]pyrimidin-7-yl]-3-methylpyrrolidin-1-yl}-3,3,3-trifluoropropan-1-one]	0.056
CC(C)[C@@H](N)C(=O)N1CC[C@](C)(N2CCc3c(-c4cnc(N)nc4)nc(N4CCOCC4)nc32)C1.Cl [Example 310, (2R)-2-amino-1-{(3S)-3-[4-(2-aminopyrimidin-5-yl)-2-(morpholin-4-yl)-5,6-dihydro-7H-pyrrolo[2,3-d]pyrimidin-7-yl]-3-methylpyrrolidin-1-yl}-3-methylbutan-1-one hydrochloride]	0.022
C[C@]1(N2CCc3c(-c4cnc(N)nc4)nc(N4CCOCC4)nc32)CCN(C(=O)[C@@](C)(N)C(F)(F)F)C1.Cl [Example 311, (2R)-2-amino-1-{(3S)-3-[4-(2-aminopyrimidin-5-yl)-2-(morpholin-4-yl)-5,6-dihydro-7H-pyrrolo[2,3-d]pyrimidin-7-yl]-3-methylpyrrolidin-1-yl}-3,3,3-trifluoro-2-methylpropan-1-one hydrochloride]	0.054
C[C@]1(N2CCc3c(-c4cnc(N)nc4)nc(N4CCOCC4)nc32)CCN(C(=O)[C@](C)(N)C(F)(F)F)C1.Cl [Example 312, (2S)-2-amino-1-{(3S)-3-[4-(2-aminopyrimidin-5-yl)-2-(morpholin-4-yl)-5,6-dihydro-7H-pyrrolo[2,3-d]pyrimidin-7-yl]-3-methylpyrrolidin-1-yl}-3,3,3-trifluoro-2-methylpropan-1-one hydrochloride]	0.037
C[C@]1(N2CCc3c(-c4cnc(N)nc4)nc(N4CCOCC4)nc32)CCN(C(=O)[C@@H](N)C(F)(F)F)C1.Cl [Example 313, (2R)-2-amino-1-{(3S)-3-[4-(2-aminopyrimidin-5-yl)-2-(morpholin-4-yl)-5,6-dihydro-7H-pyrrolo[2,3-d]pyrimidin-7-yl]-3-methylpyrrolidin-1-yl}-3,3,3-trifluoropropan-1-one hydrochloride]	0.128
C[C@]1(N2CCc3c(-c4cnc(N)nc4)nc(N4CCOCC4)nc32)CCN(C(=O)[C@H](N)C(F)(F)F)C1.Cl [Example 314, (2S)-2-amino-1-{(3S)-3-[4-(2-aminopyrimidin-5-yl)-2-(morpholin-4-yl)-5,6-dihydro-7H-pyrrolo[2,3-d]pyrimidin-7-yl]-3-methylpyrrolidin-1-yl}-3,3,3-trifluoropropan-1-one hydrochloride]	<0.018
CC(C(N)=O)C(=O)N1CC[C@](C)(N2CCc3c(-c4cnc(N)nc4)nc(N4CCOCC4)nc32)C1 (stereo partly drawn) [Example 315, 3-{(3S)-3-[4-(2-aminopyrimidin-5-yl)-2-(morpholin-4-yl)-5,6-dihydro-7H-pyrrolo[2,3-d]pyrimidin-7-yl]-3-methylpyrrolidin-1-yl}-2-methyl-3-oxopropanamide]	<0.018
